Patent US9329185B2, “Sulfonate compounds” (University of Massachusetts, priority 2013, dated 2016)

Columns and labels:
[1] = Cleavage of reductive-labile protecting group by a reducing agent (TLC analysis); type: physicochemical; details: 1 mM reducing agent (dithiothreitol or tris(2-carboxyethyl)phosphine), 30 minutes, room temperature, water (pH 7), analyzed by TLC
Protocol: Compound 1 was treated with 1 mM of a reducing agent, i.e., dithiothreitol or tris(2-carboxyethyl)phosphine, for 30 minutes at room temperature in water (pH 7). The solution was analyzed by TLC. A control experiment was conducted by analyzing an aqueous solution containing Compound 1 without being treated with a reducing agent by using TLC.

melting point	cleavage of the protecting group to form a deprotected sulfonate dye [1]	Compound
61 to 63 °C	–	Cc1ccc(C(OS(=O)(=O)CCCCl)C(F)(F)F)cc1 (stereo not drawn) [Compound 22, 2,2,2-trifluoro-1-(p-tolyl)ethyl 3-chloropropane-1-sulfonate]
220 to 222 °C (dec.)	–	Cc1ccc(C(OS(=O)(=O)CCCN2CCCc3cc4c(cc32)Oc2cc3c(cc2=N4)CCC[N+]=3CCCS(=O)(=O)OC(c2ccc(C)cc2)C(F)(F)F)C(F)(F)F)cc1 (stereo not drawn)
–	rapidly cleaved	CSSc1ccc(C(OS(=O)(=O)c2cccc3c(N(C)C)cccc23)C(F)(F)F)cc1 (stereo not drawn) [Compound 1, 2,2,2-trifluoro-1-(4-(methyldisulfanyl)phenyl)-ethyl 5-(dimethylamino)naphthalene-1-sulfonate]
